Values after ≈ are worked out from the molar mass of the structure shown. Structures can show the parent of a compound that is named as a salt.
Experiments:
Newcastle disease virus [1] = assay: Ratio of amantadine hydrochloride MIC to compound MIC for Newcastle disease virus infected in chick embryo fibroblasts; type: functional, avian paramyxovirus 1
Newcastle disease virus [2] = assay: Antiviral activity against Newcastle disease virus infected in chick embryo fibroblasts assessed as suppression of virus multiplication to 1% by measuring hemagglutinating activity by tube assay method; type: functional; conditions: avian paramyxovirus 1
[3] = Cytotoxicity against chick embryo fibroblasts after 24 hrs by microscopic analysis; type: cell-based, Gallus gallus, Fibroblast; conditions: chicken

| SMILES | Ratio (Newcastle disease virus [1]) | MIC (Newcastle disease virus [2]) [µM] | MCC at 24 h [3] [µM] |
| --- | --- | --- | --- |
| O=P(O)(O[C@H]1C[C@H]2C[C@H]1[C@@H]1CCC[C@H]21)O[C@H]1C[C@H]2C[C@H]1[C@@H]1CCC[C@H]21 | 2 | 550 (≈ 202 µg/mL) | 550 |
| O=P(O[C@H]1C[C@H]2C[C@H]1[C@@H]1CCC[C@H]21)(O[C@H]1C[C@H]2C[C@H]1[C@@H]1CCC[C@H]21)O[C@H]1C[C@H]2C[C@H]1[C@@H]1CCC[C@H]21 | – | 1000 (≈ 501 µg/mL) | 400 |
| NC12CC3CC(CC(C3)C1)C2 [AMANTADINE HYDROCHLORIDE] | – | 1300 | 1300 |
